According to US9650348B2, “Triazines with suitable spacers for treatment and/or prevention of HIV infections” (Universiteit Antwerpen, priority 2012, dated 2017):
Read-outs that look alike come from different tables or passages of the source.

Assays:
[1] = tested on: HIV-1 BaL; assay: TZM-bl antiviral assay, wild type HIV-1 Ba-L; format: cell-based; details: Human immunodeficiency virus 1, BAL, read-out: Antiviral activity-wild type viruses EC50 TZM-bI Ba-L
Method: (§1) The JC53-BL cell line, also known as the TZM-bl cell line (NIH AIDS Research and Reference Reagent Program, Germantown, USA), was used for the evaluation of anti-HIV activity. TZM-bl cells were cultured in Dulbecco's […] (DMEM) (Lonza) containing 10% heat-inactivated FBS and 50 μg gentamycin/mL at 37° C. in a humidified 5% CO2, 95% air environment. Twice a week the cells were treated with 0.25% trypsin-1 mM EDTA (Lonza) for 10 minutes. The resulting cell suspension was washed with an equivalent amount of TZM-bl medium and subsequently seeded in a T75 culture flask (Greiner Bio-One, Germany) at 10^6 cells in 20 mL medium.
(§2) The antiviral activity of the newly designed compounds was measured by pre-incubating ten thousand TZM-bl cells (at 10^5 cells/mL in culture medium supplemented with 30 μg/mL DEAE dextran) in a 96-well plate for 30 minutes at 37° C., 5% CO2 in the presence or absence of serial dilutions of the respective compound. Subsequently, 200 TCID50 of HIV-1 BaL was added to each well and cultures were incubated for 48 hours before quantifying luciferase activity, using a TriStar LB941 luminometer (Berthold Technologies GmbH & Co. KG, Bad Wildbad, Germany). Each condition was evaluated in triplicate wells and in at least two independent experiments. The antiviral activity of the compound was expressed as the percentage of viral inhibition compared to the untreated controls and subsequently plotted against the compound concentration.
(§3) The target compounds are evaluated for their anti-HIV-1 activity and cytotoxicity. In a primary screen, the anti-HIV activity against the laboratory strain Ba-L and against a primary subtype C isolate was determined in the TZM-bl cell line. Cellular toxicity on TZM-bl cells was evaluated using WST-1. […] In addition, the activity against NNRTI-resistant viruses (V106A, Y181C, L100I+K103N, L100I+E138K+T369I and K101E+K103N+V108VI+V179M+Y181C+E138Q) was tested. Diarylpyrimidines (DAPY) TMC120, TMC125 and TMC278 were used as reference compounds.

[2] = tested on: VI829; assay: TZM-bl antiviral assay, wild type VI829 (primary subtype C isolate); format: cell-based, HIV-1; details: read-out: Antiviral activity-wild type viruses EC50 TZM-bI VI829
Method: as §1, §2, §3

[3] = tested on: HIV-1 Ba-L; assay: Antiviral activity in peripheral blood mononuclear cells (PBMC), Ba-L; format: cell-based; details: Human immunodeficiency virus 1, BAL, Ba-L wild type, read-out: Antiviral activity-wild type viruses EC50 PBMC Ba-L
[4] = tested on: HIV-1 Ba-L; assay: Antiviral activity in dendritic cells / CD4+ T lymphocytes (DC/T4), Ba-L; format: cell-based; details: Human immunodeficiency virus 1, BAL; DC/T4, Ba-L wild type; read-out: Antiviral activity-wild type viruses EC50 DC/T4 Ba-L
[5] = tested on: Ba-L V106A; assay: Antiviral activity, NNRTI-resistant virus V106A; format: cell-based, HIV-1; details: for FC (V106A): Ba-L V106A; for EC50: Human immunodeficiency virus 1, BAL, read-out: Antiviral activity-NNRTI-resistant viruses EC50 Ba-L V106A
Method: as §3

[6] = tested on: VI829 Y181C; assay: Antiviral activity, NNRTI-resistant virus Y181C; format: cell-based, HIV-1; details: for EC50: Human immunodeficiency virus 1, read-out: Antiviral activity-NNRTI-resistant viruses EC50 VI829 Y181C; for FC (Y181C): VI829 Y181C
Method: as §3

[7] = tested on: VI829 L100I+K103N; assay: Antiviral activity, NNRTI-resistant virus L100I+K103N; format: cell-based, HIV-1; details: for EC50: Human immunodeficiency virus 1, read-out: Antiviral activity-NNRTI-resistant viruses EC50 VI829 L100I+K103N; for FC (L100I+K103N): VI829 L100I+K103N
Method: as §3

[8] = tested on: Ba-L K101E + K103N + V108VI + V179M + Y181C + E138Q; assay: Antiviral activity, NNRTI-resistant virus K101E+K103N+V108VI+V179M+Y181C+E138Q; format: cell-based, HIV-1; details: for FC (*): Ba-L, * = K101E + K103N + V108VI + V179M + Y181C + E138Q; for EC50: Human immunodeficiency virus 1, BAL, read-out: Antiviral activity-NNRTI-resistant viruses EC50 Ba-L *
Method: (§4) The target compounds are evaluated for their anti-HIV-1 activity and cytotoxicity. In a primary screen, the anti-HIV activity against the laboratory strain Ba-L and against a primary subtype C isolate was determined in the TZM-bl cell line. Cellular toxicity on TZM-bl cells was evaluated using WST-1. Based on the primary screening results, the target compound was further evaluated for anti-HIV activity in different primary cells, including peripheral blood mononuclear cells, dendritic cells and CD4+ T lymphocytes. In addition, the activity against NNRTI-resistant viruses (V106A, Y181C, L100I+K103N, L100I+E138K+T369I and K101E+K103N+V108VI+V179M+Y181C+E138Q) was tested. Diarylpyrimidines (DAPY) TMC120, TMC125 and TMC278 were used as reference compounds.

[9] = tested on: VI829 L100I+E138K+T369I; assay: Antiviral activity, NNRTI-resistant virus L100I+E138K+T369I; format: cell-based, HIV-1; details: VI829, ** = L1001 + E138K + T3691
Method: as §4

[10] = in vitro; format: cell-based; details: human, Cytotoxicity CC50 TZM-bI
Source text: The Water Soluble Tetrazolium-1 (WST-1) Cell Proliferation Assay is a colorimetric assay for the measurement of cell proliferation and viability. The assay is based on the cleavage of the tetrazolium salt WST-1 (4-[3-(4-iodophenyl)-2-(4-nitrophenyl)-2H-5-tetrazolio]-1,3-benzene disulfonate) to a formazan dye by a complex cellular mechanism. This bioreduction is largely dependent on the glycolytic production of NAD(P)H in viable cells. Therefore, the amount of formazan dye formed correlates directly to the number of viable cells in the culture, and can be quantified by measuring the absorbance at 450 nm in a multiwell plate reader. The greater the number of viable cells, the greater the amount of formazan dye produced following the addition of WST-1. Cytotoxicity of each compound was evaluated using this WST-1 viability assay, according to the manufacturer's instructions (Roche, Vilvoorde, Belgium).
Briefly, ten thousand TZM-bl cells were seeded in a 96-well plate and cultured for 2 days in the presence of a serial dilution of compound. After this 48 h exposure, Cell Proliferation Reagent, WST-1, was added and absorbance at 450 nm was quantified after 90 min using a microplate reader (BioRad, Tokio, Japan). Each compound was tested in three replicate wells and in at least two independent experiments.
as §3

[11] = Human immunodeficiency virus 1, TZM-bl cells, VI829 wild type

Structure (SMILES)	EC50 ([1]; TZM-bl cells, Ba-L wild type)	EC50 [2, 11]	EC50 [3]	EC50 [4]	FC (V106A) [5]	EC50 [5]	EC50 [6]	FC (Y181C) [6]	EC50 [7]	FC (L100I+K103N) [7]	FC (*) [8]	EC50 [8]	FC (**) [9]	CC50 at 48 h [10]	EC50 ([1]; TZM-bl)	EC50 ([2]; Human immunodeficiency virus 1, TZM-bl)
Cc1cc(C=CC#N)cc(C)c1Nc1nc(N)nc(Nc2ccc(C#N)cc2)n1 [T1, 4-(4-amino-6-(4-(2-cyanovinyl)-2,6-dimethylphenylamino)-1,3,5-triazin-2-ylamino)benzonitrile]	1.3 nM	1.1 nM	1.8 nM	0.7 nM	1	1.7 nM	4 nM	3	15 nM	10	18	22.8 nM	210	34600 nM	–	–
CNc1nc(Nc2ccc(C#N)cc2)nc(Nc2c(C)cc(C=CC#N)cc2C)n1 [T4, 4-((4-((4-(2-cyanovinyl)-2,6-dimethylphenyl)amino)-6-(methylamino)-1,3,5-triazin-2-yl)amino)benzonitrile]	1.7 nM	–	–	–	–	–	–	–	–	–	39	66 nM	–	5910 nM	–	–
Cc1cc(C=CC#N)cc(C)c1Nc1nc(Nc2ccc(C#N)cc2)nc(N(C)C)n1 [T5, 4-((4-((4-(2-cyanovinyl)-2,6-dimethylphenyl)amino)-6-(dimethylamino)-1,3,5-triazin-2-yl)amino)benzonitrile]	5.8 nM	4.4 nM	–	–	2	12 nM	27 nM	6	74 nM	17	78	455 nM	31	8060 nM	–	–
Cc1cc(C=CC#N)cc(C)c1Nc1nc(Nc2ccc(C#N)cc2)nc(N2CCCCC2)n1 [T7, 4-((4-((4-(2-cyanovinyl)-2,6-dimethylphenyl)amino)-6-(piperidin-1-yl)-1,3,5-triazin-2-yl)amino)benzonitrile]	18 nM	19 nM	–	–	7	126 nM	221 nM	12	> 1000 nM	>50	>55	> 1000 nM	>50	> 100000 nM	–	–
Cc1cc(C=CC#N)cc(C)c1Nc1nc(Nc2ccc(C#N)cc2)nc(N2CCOCC2)n1 [T8, 4-((4-((4-(2-cyanovinyl)-2,6-dimethylphenyl)amino)-6-morpholino-1,3,5-triazin-2-yl)amino)benzonitrile]	7.1 nM	–	–	–	–	–	–	–	–	–	89	634 nM	–	11400 nM	–	–
Cc1cc(C=CC#N)cc(C)c1Nc1nc(Nc2ccc(C#N)cc2)nc(N2CCN(C)CC2)n1 [T9, 4-((4-((4-(2-cyanovinyl)-2,6-dimethylphenyl)amino)-6-(4-methylpiperazin-1-yl)-1,3,5-triazin-2-yl)amino)benzonitrile]	8.5 nM	–	–	–	–	–	–	–	–	–	37	316 nM	–	21200 nM	–	–
N#CC=Cc1cc(F)c(Nc2nc(N)nc(Nc3ccc(C#N)cc3)n2)c(F)c1 [T10, 4-((4-amino-6-((4-(2-cyanovinyl)-2,6-difluorophenyl)amino)-1,3,5-triazin-2-yl)amino)benzonitrile]	0.53 nM	–	–	–	–	–	–	–	–	–	1113	590 nM	–	21400 nM	–	–
Cc1cc(C=CC#N)cc(C)c1Oc1nc(N)nc(Nc2ccc(C#N)cc2)n1 [T11, 4-((4-amino-6-(4-(2-cyanovinyl)-2,6-dimethylphenoxy)-1,3,5-triazin-2-yl)amino)benzonitrile]	1.1 nM	0.64 nM	–	–	2	2.5 nM	4.1 nM	6	17 nM	27	56	62 nM	167	19100 nM	–	–
CNc1nc(Nc2ccc(C#N)cc2)nc(Oc2c(C)cc(C=CC#N)cc2C)n1 [T12, 4-((4-(4-(2-cyanovinyl)-2,6-dimethylphenoxy)-6-(methylamino)-1,3,5-triazin-2-yl)amino)benzonitrile]	1.6 nM	1.6 nM	–	–	4	6.5 nM	7.4 nM	5	24 nM	15	48	77 nM	44	20000 nM	–	–
Cc1cc(C=CC#N)cc(C)c1Oc1nc(Nc2ccc(C#N)cc2)nc(N(C)C)n1 [T13, 4-((4-(4-(2-cyanovinyl)-2,6-dimethylphenoxy)-6-(dimethylamino)-1,3,5-triazin-2-yl)amino)benzonitrile]	3.4 nM	–	–	–	–	–	–	–	–	–	231	786 nM	–	7850 nM	–	–
Cc1cc(C=CC#N)cc(C)c1Oc1nc(Nc2ccc(C#N)cc2)nc(N2CCCCC2)n1 [T14, 4-((4-(4-(2-cyanovinyl)-2,6-dimethylphenoxy)-6-(piperidin-1-yl)-1,3,5-triazin-2-yl)amino)benzonitrile]	21 nM	–	–	–	–	–	–	–	–	–	>47	> 1000 nM	–	> 100000 nM	–	–
Cc1cc(C#N)cc(C)c1Oc1nc(Nc2ccc(C#N)cc2)nc(N)c1Br [TMC125, Etravirine, reference compound]	–	–	5.9 nM	1.8 nM	1	1.6 nM	7.6 nM	5	14 nM	9	51	76 nM	62	–	1.5 nM	1.5 nM
